Results reported in paper PMC5658359, “A potent small-molecule inhibitor of the DCN1-UBC12 interaction that selectively blocks cullin 3 neddylation” (Nature Communications, 2017).

Tests used:
DCN5 = biological target: T1, DCN5 (Homo sapiens, UniProt Q9BTE7); test: Label-free BLI assay, DCN5; assay type: binding; conditions: concentrations up to 10 µM
T1 construct: DCN2 (residues 62–259), DCN3 (residues 86–304), DCN4 (residues 102–292) and DCN5 (residues 47–237); His6-TEV (N, cleaved yes); made in house; host or cells: Rosetta2 cells (E. coli)
T1 sequence (Q9BTE7 47-237): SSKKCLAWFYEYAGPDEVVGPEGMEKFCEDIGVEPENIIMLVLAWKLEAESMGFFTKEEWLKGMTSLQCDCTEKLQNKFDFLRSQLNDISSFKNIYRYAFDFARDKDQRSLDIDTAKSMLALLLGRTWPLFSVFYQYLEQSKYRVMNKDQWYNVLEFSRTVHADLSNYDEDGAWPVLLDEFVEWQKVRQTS

neddylation of cullin 3 = test: Western blotting of neddylated and un-neddylated cullin 3 in cells; assay type: cell-based; conditions: THLE2 liver cells, DI-591 at 10 µM
Source text: (§1) Treated cells were lysed by RIPA buffer supplemented with protease and phosphatase inhibitors. The expression level of indicated proteins was examined by immunoblotting analysis. GAPDH was used as the loading control.

NQO1 and HO1 mRNA = test: qRT-PCR of NRF2-regulated genes in THLE2 cells; assay type: cell-based; conditions: THLE2, 10 µM
Source text: (§2) Total RNA in treated cells was isolated with the RNeasy Mini Kit (Qiagen, Germantown, MD). RNA was reverse transcribed into complementary DNA (cDNA) using high capacity RNA-to-cDNA kit (Applied Biosystems, Carlsbad, California). […] GAPDH was used as an internal reference. […] Error bars correspond to SD from three independent experiments.

[1] = tested on: neddylation of cullin 1 and other cullins; test: Western blotting of neddylated and un-neddylated cullin 1 and other cullins in cells; assay type: cell-based; conditions: THLE2 liver cells, up to 24 h, DI-591 10 µM, MLN4924 0.3 µM
Source text: as §1

p21, Bim, CDT1 = test: Western blotting of cullin 1 and 4A CRL substrates in cells; assay type: cell-based; conditions: western blot, 24 h
Source text: as §1

NRF2 = test: Western blotting of NRF2 protein in cells; assay type: cell-based; conditions: western blot, 24 h
Source text: as §1

DCN3 = biological target: T2, DCN3 (Homo sapiens, UniProt Q8IWE4); test: Label-free BLI assay, DCN3; assay type: binding; conditions: concentrations up to 10 µM
T2 construct: DCN2 (residues 62–259), DCN3 (residues 86–304), DCN4 (residues 102–292) and DCN5 (residues 47–237); His6-TEV (N, cleaved yes); made in house; host or cells: Rosetta2 cells (E. coli)
T2 sequence (Q8IWE4 86-304): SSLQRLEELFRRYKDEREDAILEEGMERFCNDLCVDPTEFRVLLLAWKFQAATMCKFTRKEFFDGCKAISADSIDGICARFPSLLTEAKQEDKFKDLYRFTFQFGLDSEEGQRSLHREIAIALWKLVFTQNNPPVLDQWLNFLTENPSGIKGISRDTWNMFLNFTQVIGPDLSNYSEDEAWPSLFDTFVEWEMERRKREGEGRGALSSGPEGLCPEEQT

[2] = Equilibrium aqueous solubility, small-scale shake-flask method; conditions: for solubility at 24 h: thermodynamic from solid
Procedure: The equilibrium aqueous solubility of an individual compound at different pH values was determined with a small-scale shake-flask method in Eppendorf tubes. Compounds were added as powder in excess to Britton-Robinson buffer at pH 2.0 or phosphate buffer at pH 7.4 until heterogeneous suspensions were obtained. Suspensions containing excessive compound powder were sonicated in a water bath for 30 min followed by incubation at room temperature with shaking for 24 h to achieve thermodynamic equilibrium. […] Supernatants obtained were filtered using Millipore MultiScreen filter plates equipped with 0.45 µm membranes. Compound concentrations in the saturated solutions were measured by UV spectroscopy at the maximum absorption wavelengths of each compound that were pre-determined by a spectrum scan.

DCN4 = biological target: T3, DCN4 (Homo sapiens, UniProt Q92564); test: Label-free BLI assay, DCN4; assay type: binding; conditions: concentrations up to 10 µM
T3 construct: DCN2 (residues 62–259), DCN3 (residues 86–304), DCN4 (residues 102–292) and DCN5 (residues 47–237); His6-TEV (N, cleaved yes); made in house; host or cells: Rosetta2 cells (E. coli)
T3 sequence (Q92564 102-292): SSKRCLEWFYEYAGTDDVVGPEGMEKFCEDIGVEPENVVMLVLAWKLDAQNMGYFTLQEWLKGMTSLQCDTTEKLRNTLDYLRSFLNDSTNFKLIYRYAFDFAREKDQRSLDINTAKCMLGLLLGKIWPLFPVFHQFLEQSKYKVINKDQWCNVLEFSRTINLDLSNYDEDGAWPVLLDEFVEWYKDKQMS

[3] = tested on: THLE2 cells and five additional cancer cell lines; test: Cell viability, WST assay, panel of 6 cell lines; assay type: cell-based; conditions: DI-591 at concentrations up to 20 µM
NRF2 mRNA = test: qRT-PCR of NRF2 mRNA in THLE2 cells; assay type: cell-based; conditions: THLE2, 10 µM
Source text: as §2

NEDD8 E1 (APP-BP1/Uba3) = biological target: T4, NEDD8 E1 (APP-BP1/Uba3) (Homo sapiens, UniProt Q8TBC4); test: In vitro UBC12~NEDD8 thioester forming assay; assay type: biochemical; conditions: DI-591 at concentrations up to 100 µM
T4 construct: purchased Boston Biochem
T4 sequence (Q8TBC4 1-463): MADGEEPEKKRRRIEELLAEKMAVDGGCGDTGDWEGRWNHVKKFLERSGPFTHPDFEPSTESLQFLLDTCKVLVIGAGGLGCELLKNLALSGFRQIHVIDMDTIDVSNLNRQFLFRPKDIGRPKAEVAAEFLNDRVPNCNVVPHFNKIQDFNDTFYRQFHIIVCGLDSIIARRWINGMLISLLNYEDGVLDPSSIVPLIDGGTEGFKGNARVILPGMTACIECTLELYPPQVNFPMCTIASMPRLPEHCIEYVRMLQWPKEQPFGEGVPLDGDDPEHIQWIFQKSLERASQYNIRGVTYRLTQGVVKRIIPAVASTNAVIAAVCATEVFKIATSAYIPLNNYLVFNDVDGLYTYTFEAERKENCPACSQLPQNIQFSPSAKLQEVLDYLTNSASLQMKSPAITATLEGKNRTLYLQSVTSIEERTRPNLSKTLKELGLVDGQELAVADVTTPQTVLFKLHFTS
T4 sequence (Q13564 1-534 partner): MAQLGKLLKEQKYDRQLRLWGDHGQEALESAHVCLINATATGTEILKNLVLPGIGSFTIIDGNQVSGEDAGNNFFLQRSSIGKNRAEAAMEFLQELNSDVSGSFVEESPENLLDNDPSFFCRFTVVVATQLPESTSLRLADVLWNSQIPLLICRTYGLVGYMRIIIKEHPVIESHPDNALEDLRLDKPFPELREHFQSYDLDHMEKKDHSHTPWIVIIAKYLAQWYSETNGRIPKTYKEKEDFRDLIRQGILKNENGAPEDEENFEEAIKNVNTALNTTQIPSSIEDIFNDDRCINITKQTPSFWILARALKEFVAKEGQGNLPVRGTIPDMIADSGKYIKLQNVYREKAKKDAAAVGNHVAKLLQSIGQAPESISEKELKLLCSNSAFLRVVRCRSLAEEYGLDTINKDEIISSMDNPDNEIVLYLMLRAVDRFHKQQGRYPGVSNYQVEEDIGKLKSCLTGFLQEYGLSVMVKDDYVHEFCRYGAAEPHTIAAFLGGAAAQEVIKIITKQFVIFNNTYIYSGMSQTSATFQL
Procedure: NEDD8, NEDD8 E1 (APP-BP1/Uba3) and UBC12 proteins were purchased from Boston Biochem. NEDD8 (10 μM), NEDD8 E1 (25 nM), and UBC12 (2 μM) were incubated in Tris-HCl (pH 7.4, 50 mM), MgCl2 (5 mM), DTT (0.5 mM) and BSA (0.1 mg/ml), with a tested compound at 25 °C for 10 min. Reactions were initiated by addition of 2 mM ATP (or distilled H2O) and ran for 5 min at 25 °C. 1 M DTT (or distilled H2O) was added to the reaction mixtures which were then kept on ice for 1 min followed by addition of SDS loading buffer (without DTT). The products were separated by SDS–PAGE, visualized by Coomassie stain and quantified by ImageLab (Bio-Rad).
1 Supplementa ry Figure 3:
3 Supplementary Figure 3. In vitro U BC12~N EDD8 thio ester forming assay.N EDD8,
4 NEDD8 E1 (APP -BP 1/Uba3) and UBC12 were purchased from Boston Biochem. 10μ M
5 NEDD8, 25nM N EDD8 E1,and 2μ M UBC12 were incubated in 50mM Tris-HCl (pH 7.4), 5mM
6 M gC l 2, 0.5mM DTT, and 0.1mg/ml BSA, with indicated compounds at 25℃ for 10min.
7 Reactions were initiated by addition o f 2mM ATP (or dH2O) and w ere run for 5min at 25℃ .
8 Reaction mixtures were t hen added with 1M DTT (or dH 2O) and kept on ice for 1min followed
9 by addition of SDS Loading buffer (without DTT). The products were s eparated b y SDS-PAGE,
10 visualized by Coomassie stain and quantified using an ImageLab imager ( Bio-Rad). […]

Which results are given for `CCC(=O)N[C@@H](Cc1nc2ccc(C(C)C)cc2s1)C(=O)N[C@H](CNC(=O)CCN1CCOCC1)C1CCCCC1` [DI-591]?
binding to DCN5 (in words) (DCN5): no appreciable binding; time to complete depletion of neddylated cullin 3 (neddylation of cullin 3): ≤ 5 min; mRNA levels of NQO1 and HO1 (in words) (NQO1 and HO1 mRNA): robustly increases; effect on neddylation of cullin 1, time course (in words) [1]: no effect; protein levels of p21, Bim and CDT1 (in words) (p21, Bim, CDT1): no or minimal effect; NRF2 protein level (in words) (NRF2): dose dependently increases; binding to DCN3 (in words) (DCN3): no appreciable binding; aqueous solubility (in words) [2]: excellent; solubility at 24 h ([2]; Britton-Robinson buffer, pH 2, aqueous buffer): > 20 mM; solubility at 24 h ([2]; Britton-Robinson buffer, pH 2.02, aqueous buffer): > 20 mM; solubility at 24 h ([2]; phosphate buffer, pH 7.4, aqueous buffer): > 20 mM; binding to DCN4 (in words) (DCN4): no appreciable binding; cytotoxicity (in words) [3]: no significant cytotoxicity; mRNA level of NRF2 (in words) (NRF2 mRNA): no effect; inhibition of UBC12 neddylation (E1 activity), in words (NEDD8 E1 (APP-BP1/Uba3)): no such effect
